{"source": "patent US20100173879A1", "about": "“USE OF A COMPOUND ANTAGONIST TO THE NK2 RECEPTORS OF NEUROKININ A FOR THE PREPARATION OF DRUGS USEFUL FOR PREVENTING AND TREATING OF SEXUAL DYSFUNCTION” (SANOFI-AVENTIS, priority 2007, published 2010)", "test_system": "male or female adult patients, exhibiting a major depressive disorder", "experiment": "Eight-week multicentre double-blind clinical studies versus placebo, CSFQ questionnaire (changes in sexual functioning questionnaire)", "assay_type": "in vivo, human", "settings": "100 mg per day orally for eight weeks", "experimental": "The patients received, orally, a dose of 100 mg per day of saredutant for eight weeks, in the form of gel capsules (Example 2). he effects of saredutant compared with the placebo were evaluated using the CSFQ questionnaire (changes in sexual functioning questionnaire) comprising 14 items according to Clayton A H et al., Psychopharmacol. Bull., 1997, 33, 731-745. It is known that antidepressants have a deleterious effect on the sexual activity of patients (Montejo-Gonzales A L et al.: J. Sex Marital Ther., 1997, 23(3), 176-194). […] The table below indicates, for each group treated, the mean variation relative to the base value before treatment of the total CSFQ score and its variability between parentheses obtained over the analysis of all the studies. An increase in the total CSFQ score corresponds to an improvement in sexual function.", "data": [{"smiles": "CC(=O)NC1(c2ccccc2)CCN(CC[C@H](CN(C)C(=O)c2ccccc2)c2ccc(Cl)c(Cl)c2)CC1", "note": "[Saredutant, (S)-(−)-N-[4-(4-acetamido-4-phenylpiperidin-1-yl)-2-(3,4-dichlorophenyl)butyl]-N-methylbenzamide]", "values": [{"measurement": "effect on the dysfunctions reduced sexual desire and sexual arousal disorders", "setting": "versus placebo", "result": "beneficial effect"}, {"measurement": "improvement in the total CSFQ score between the last visit (56th day) and the first visit, in comparison with the placebo group", "setting": "p<0.05", "result": "significant improvement"}, {"measurement": "Total CSFQ score, mean variation relative to the base value before treatment (variability between parentheses)", "setting": "all patients, n = 553, analysis of all the studies, increase = improvement in sexual function, *p < 0.05 versus placebo (ANCOVA)", "result": "2.23 (0.64)*"}]}]}
